This is an account of results in US20110015119A1, “NOVEL SEMI-SYNTHETIC GLYCOPEPTIDES AS ANTIBACTERIAL AGENTS” (LEAD THERAPEUTICS, INC., priority 2009, published 2011).

Values after ≈ are worked out from the molar mass of the structure shown. Where two headings read alike, the source gives them in different places. Where only a bound is given, the exact number is not on record here.

What all share (assay type): cell-based
The subject of assay [1] is Staphylococcus aureus 2012 (VISA). The assay can be described thus: MIC by broth microdilution, SA 2012. The note with it: class symbols. The method, then:
(§1) Antibacterial activity in vitro is investigated by broth microdilution method in Meuller-Hinton broth as recommended by NCCLS. All strains tested are clinical isolates either sensitive or resistant to natural glycopeptides. MIC values were determined using the CLSI-recommended broth microdilution procedure (Clinical and Laboratory Standards Institute, Methods for Dilution Antimicrobial Susceptibility Tests for Bacteria That Grow Aerobically; Approved Standard-Seventh Edition.). Automated liquid handlers (Multidrop 384, Labsystems, Helsinki, Finland; Biomek 2000 and Multimek 96, Beckman Coulter, Fullerton Calif.) were used to conduct serial dilutions and liquid transfers. The MIC value for vancomycin is given for comparison. The abbreviations for organisms tested are as follow: SA 100—Staphylococcus aureus 100 (ATCC 29213); SA 757—Staphylococcus aureus 757 (MRSA); SA 2012—Staphylococcus aureus 2012 (VISA); SE 835—Staphylococcus epidermidis 835; SE 831—Staphylococcus epidermidis 831 (MRSE); EFc 101—Enterococcus faecalis 101 (ATCC 29212); EFc 848—Enterococcus faecalis 848 (VRE, Van A); EFcm 800—Enterococcus faecium 800; EFcm 752—Enterococcus faecium 752 (VRE, Van A); SPNE 1195—Streptococcus pneumoniae 1195 (ATCC 49619); SPY 712—Streptococcus pyogenes 712.
For orientation: In broth dilution the organism is exposed to a series of concentrations in liquid medium.

Assay [2] has as its system Enterococcus faecalis 848 (VRE, Van A). As to the kind of experiment: MIC by broth microdilution, EFc 848. The note with it: class symbols. The method, then:
as §1

Assay [3] relates to Streptococcus pneumoniae 1195 (ATCC 49619). As to the kind of experiment: MIC by broth microdilution, SPNE 1195. As for the experimental part: as §1
For assay [4], the system named is Staphylococcus aureus 100 (ATCC 29213). The assay can be described thus: MIC by broth microdilution, SA 100. The method, then: as §1
Assay [5] has as its system Staphylococcus aureus 757 (MRSA). The assay can be described thus: MIC by broth microdilution, SA 757. As to conditions: read-out: MIC SA 757. The method, then:
as §1

Assay [6] deals with Enterococcus faecium 752 (VRE, Van A). The assay can be described thus: MIC by broth microdilution, EFcm 752. As to conditions: class symbols. The method, then:
as §1

The subject of assay [7] is Staphylococcus epidermidis 835. As to the kind of experiment: MIC by broth microdilution, SE 835. As for the experimental part: as §1
The subject of a further assay is Enterococcus faecium 800. The assay can be described thus: MIC by broth microdilution, EFcm 800. As for the experimental part: as §1
Assay [8] has as its system Enterococcus faecalis 101 (ATCC 29212). The assay can be described thus: MIC by broth microdilution, EFc 101. The note with it: class symbols. The method, then: as §1
Assay [9] deals with Staphylococcus epidermidis 831 (MRSE). As to the kind of experiment: MIC by broth microdilution, SE 831. The note with it: read-out: MIC SE 831. The method, then:
as §1

For assay [10], the system named is Streptococcus pyogenes 712. As to the kind of experiment: MIC by broth microdilution, SPY 712. The method, then: as §1
[11] abbreviates: Streptococcus pneumoniae, ATCC49619, read-out: MIC S PNE 1195.
Where [12] appears, read: Staphylococcus aureus, ATCC29213, read-out: MIC SA 100.
The mark [13] stands for this setting: Staphylococcus epidermidis, 835, read-out: MIC SE 835.
The mark [14] stands for this setting: Enterococcus faecium, 800, read-out: MIC E FCM 800.
[15] abbreviates: Enterococcus faecalis, ATCC29212, read-out: MIC E FC 101, Enterococcus faecalis 101 (ATCC 29212).
Setting [16] is: Staphylococcus epidermidis, MRSE.
Where [17] appears, read: Streptococcus pyogenes, 712, read-out: MIC S PYO 712.
Where [18] appears, read: Staphylococcus aureus 2012 (VISA), read-out: MIC SA 2012.
Setting [19] is: Enterococcus faecalis 848 (VRE, Van A), read-out: MIC E FC 848.
Where [20] appears, read: ATCC49619, Streptococcus pneumoniae 1195 (ATCC 49619), class symbols, read-out: MIC S PNE 1195.
Setting [21] is: ATCC29213, Staphylococcus aureus 100 (ATCC 29213), class symbols, read-out: MIC SA 100.
[22] abbreviates: Staphylococcus aureus 757 (MRSA), class symbols.
Setting [23] is: Enterococcus faecium 752 (VRE, Van A), read-out: MIC E FCM 752.
Where [24] appears, read: Staphylococcus epidermidis 835, class symbols, read-out: MIC SE 835.
The mark [25] stands for this setting: Enterococcus faecium 800, class symbols, read-out: MIC E FCM 800.
Where [26] appears, read: ATCC29212, Enterococcus faecalis 101 (ATCC 29212), read-out: MIC E FC 101.
Where [27] appears, read: Staphylococcus epidermidis 831 (MRSE), class symbols.
Setting [28] is: Streptococcus pyogenes 712, class symbols, read-out: MIC S PYO 712.

As usually defined, the MIC is the lowest concentration found to suppress growth. On to `CCCOc1ccc(NC(=O)Oc2cc(O)c3c(c2)[C@@H](C(=O)O)NC(=O)[C@H]2NC(=O)[C@H](NC(=O)[C@@H]4NC(=O)[C@H](CC(N)=O)NC(=O)[C@H](NC(=O)[C@@H](CC(C)C)NC)[C@H](O)c5ccc(c(Cl)c5)Oc5cc4cc(c5O[C@@H]4O[C@H](CO)[C@@H](O)[C@H](O)[C@H]4O[C@H]4C[C@](C)(N)[C@H](O)[C@H](C)O4)Oc4ccc(cc4Cl)[C@H]2O)c2ccc(O)c-3c2)cc1` (atropisomer, axis not shown) [Compound 329], for which the MIC in assay [1] (Staphylococcus aureus, VISA, read-out: MIC SA 2012, Staphylococcus aureus 2012 (VISA)) was 8 to 16 µg/mL (≈ 4.92 to 9.84 µM); in [2] (Enterococcus faecalis, VRE, read-out: MIC E FC 848, Enterococcus faecalis 848 (VRE, Van A)), over 16 µg/mL; in assay [3] (setting [11]), 0.01 to 0.5 µg/mL (≈ 0.00615 to 0.307 µM); in assay [4] (setting [12]) it was 1 to 2 µg/mL (≈ 0.615 to 1.23 µM); in assay [5] (Staphylococcus aureus, MRSA), 0.5 to 1 µg/mL (≈ 0.307 to 0.615 µM); in assay [6] (Enterococcus faecium, VRE, read-out: MIC E FCM 752, Enterococcus faecium 752 (VRE, Van A)), over 16 µg/mL. In addition, the MIC in [7] (setting [13]) was in the range of 2 to 4 µg/mL (≈ 1.23 to 2.46 µM); in the assay with Enterococcus faecium 800 (setting [14]), 0.5 to 1 µg/mL (≈ 0.307 to 0.615 µM); in assay [8] (setting [15]) it was 0.5 to 1 µg/mL (≈ 0.307 to 0.615 µM); in assay [9] (setting [16]), 2 to 4 µg/mL (≈ 1.23 to 2.46 µM); in assay [10] (setting [17]), 0.01 to 0.5 µg/mL (≈ 0.00615 to 0.307 µM).
Turning to `CCCCCCc1ccc(S(=O)(=O)NCCCCCCNCc2c(O)cc3c(c2O)-c2cc(ccc2O)[C@H]2NC(=O)[C@@H]4NC(=O)[C@H](CC(N)=O)NC(=O)[C@H](NC(=O)[C@@H](CC(C)C)NC)[C@H](O)c5ccc(c(Cl)c5)Oc5cc4cc(c5O[C@@H]4O[C@H](CO)[C@@H](O)[C@H](O)[C@H]4O[C@H]4C[C@](C)(NC(=O)[C@@H](C)N)[C@H](O)[C@H](C)O4)Oc4ccc(cc4Cl)[C@@H](O)[C@H](NC2=O)C(=O)N[C@@H]3C(=O)O)cc1` (atropisomer, axis not shown) [Compound 342], the MIC in assay [1] (setting [18]) fell in the range of 0.01 to 0.5 µg/mL (≈ 0.00534 to 0.267 µM); in assay [2] (setting [19]) it was 4 to 8 µg/mL (≈ 2.14 to 4.27 µM); in [3] (setting [20]) it was 0.01 to 0.5 µg/mL (≈ 0.00534 to 0.267 µM); in [4] (setting [21]) it was 0.01 to 0.5 µg/mL (≈ 0.00534 to 0.267 µM); in assay [5] (setting [22]), 0.01 to 0.5 µg/mL (≈ 0.00534 to 0.267 µM); in assay [6] (setting [23]) it was 0.5 to 1 µg/mL (≈ 0.267 to 0.534 µM). The minimal inhibitory concentration (MIC) (in assay [7] (setting [24]); with Enterococcus faecium 800 (setting [25]); in assay [8] (setting [26]); in assay [9] (setting [27]); in assay [10] (setting [28])) was 0.01 to 0.5 µg/mL (≈ 0.00534 to 0.267 µM) each time.
Consider `CCCCCCc1ccc(S(=O)(=O)NCCCCCCNCc2c(O)cc3c(c2O)-c2cc(ccc2O)[C@H]2NC(=O)[C@@H]4NC(=O)[C@H](CC(N)=O)NC(=O)[C@H](NC(=O)[C@@H](CC(C)C)NC)[C@H](O)c5ccc(c(Cl)c5)Oc5cc4cc(c5O[C@@H]4O[C@H](CO)[C@@H](O)[C@H](O)[C@H]4O[C@H]4C[C@](C)(NC(=O)[C@H](N)C(C)C)[C@H](O)[C@H](C)O4)Oc4ccc(cc4Cl)[C@@H](O)[C@H](NC2=O)C(=O)N[C@@H]3C(=O)O)cc1` (atropisomer, axis not shown) [Compound 343], for which the MIC fell in the range of 0.01 to 0.5 µg/mL (≈ 0.00526 to 0.263 µM) in [1] (setting [18]); 8 to 16 µg/mL (≈ 4.21 to 8.42 µM) in assay [2] (setting [19]); 0.01 to 0.5 µg/mL (≈ 0.00526 to 0.263 µM) in [3] (setting [20]); 0.01 to 0.5 µg/mL (≈ 0.00526 to 0.263 µM) in [4] (setting [21]); 0.01 to 0.5 µg/mL (≈ 0.00526 to 0.263 µM) in [5] (setting [22]); 1 to 2 µg/mL (≈ 0.526 to 1.05 µM) in assay [6] (setting [23]). In addition, the MIC (in assay [7] (setting [24]); in the assay on Enterococcus faecium 800 (setting [25]); in [8] (setting [26]); in assay [9] (setting [27]); in assay [10] (setting [28])) was 0.01 to 0.5 µg/mL (≈ 0.00526 to 0.263 µM) each time.
As to `CCCCCOc1ccc(CCNC(=O)Oc2cc(O)c3c(c2)[C@@H](C(=O)NC2C4CC5CC(C4)CC2C5)NC(=O)[C@H]2NC(=O)[C@H](NC(=O)[C@@H]4NC(=O)[C@H](CC(N)=O)NC(=O)[C@H](NC(=O)[C@@H](CC(C)C)NC)[C@H](O)c5ccc(c(Cl)c5)Oc5cc4cc(c5O[C@@H]4O[C@H](CO)[C@@H](O)[C@H](O)[C@H]4O[C@H]4C[C@](C)(N)[C@H](O)[C@H](C)O4)Oc4ccc(cc4Cl)[C@H]2O)c2ccc(O)c-3c2)cc1` (some centres unmarked) [Compound 338], the MIC lay in the range of 0.01 to 0.5 µg/mL (≈ 0.00551 to 0.275 µM) in assay [3] (setting [11]); 0.01 to 0.5 µg/mL (≈ 0.00551 to 0.275 µM) in [4] (setting [12]); 0.01 to 0.5 µg/mL (≈ 0.00551 to 0.275 µM) in assay [5] (Staphylococcus aureus, MRSA); 0.01 to 0.5 µg/mL (≈ 0.00551 to 0.275 µM) in [7] (setting [13]); 0.01 to 0.5 µg/mL (≈ 0.00551 to 0.275 µM) with Enterococcus faecium 800 (setting [14]); 0.01 to 0.5 µg/mL (≈ 0.00551 to 0.275 µM) in assay [8] (setting [15]). For the same compound, the minimum inhibitory concentration (MIC) in [9] (setting [16]) and in assay [10] (setting [17]) was 0.01 to 0.5 µg/mL (≈ 0.00551 to 0.275 µM) in each case.
